Patent US20240051952A1, “HMOX1 INDUCERS” (Mitobridge Inc., priority 2019, published 2024)
Converted amounts (≈) assume the structure as drawn. Structures can show the parent of a compound that is named as a salt.

How the values were obtained:
[1] = tested on: Human Heme Oxygenase-1 (HMOX-1); assay: ELISA assay to measure human heme oxygenase-1 (HMOX-1) in HepG2 lysate; assay type: cell-based; conditions: for Maximum Fold induction: fold change of human HMOX1 protein levels relative to DMSO control, HepG2; for EC50: human HMOX1 protein in HepG2 lysate, ELISA, * = average of 2 or more EC50 determinations, NA = Not Active
Method in brief: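 HepG2 cells lysed in PBS/0.5% Triton X-100/1 mM EDTA with protease inhibitors; lysate diluted 1:20. Sandwich ELISA: anti-HO-1 capture (8 μg/ml), biotinylated detection antibody (200 ng/ml), streptavidin-HRP, chemiluminescent read. Quantified against 12-point HO-1 standard curve from 20 ng/ml; incubations at 20 °C.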

Heme Oxygenase 1 (HO1) = assay: PD study, HMOX1 protein levels in mouse plasma and liver (ELISA); assay type: in vivo; conditions: HMOX1 protein fold induction vs time-matched vehicle, 50 mpk oral; for Liver Protein (3 h) / Liver Protein (6 h): mouse liver; for Plasma Protein (3 h) / Plasma Protein (6 h): mouse plasma
Method: 9-10 week old male C57BL/6 mice were dosed orally with 50 mg/kg of vehicle or compound formulated in 5% w/v tween 80 and 0.5% methyl cellulose. At indicated time points (3 and 6 hours or or 4 and 8 hours post-dosing as shown in the results below), whole blood was collected, animal was sacrificed and liver was collected. Blood samples were transferred to vials containing 4 μL of 10% w/v EDTA, centrifuged at 6000 rpm for 8 in below 10° C. to obtain plasma. Samples were frozen and later processed for HMOX1 protein levels as indicated below:
HMOX 1 Protein Levels: Mouse Liver
Preparation of Homogenization/Lysis Buffer
The homogenization buffer was prepared according Table A.
Immediately prior to use, add DTT (ThermoScientific #R0861) to a final concentration of 5 mM and 100×Halt Protease & Phosphatase Inhibitor Cocktail (ThermoScientific #78440) to a final concentration of 1×.
Preparation of Mouse Liver Samples
Liver samples were crushed by mortar and pestle under freezing conditions. Pulverized tissue was transferred into pre-chilled bead ruptor OMNI tubes (OMNI International, Cat #19-628). 1 mL of homogenization buffer (+DTT and HALT) was added to pulverized tissue and tubes were placed on ice. Samples were loaded and run through bead ruptor at speed 5.64 m/s, for two 20 sec cycles with 10 sec dwell between cycles and samples were immediately returned to ice. All material was transferred to a new chilled 2 mL Eppendorf tube. Samples were centrifuged for 5 minutes at 2,000 rpm at 4° C. Supernatant was transferred to a fresh chilled 1.7 mL Eppendorf tube. Samples were centrifuged for 5 minutes at 2,000 rpm at 4° C. The supernatant, consisting of cytosol and microsomes, was transferred to a fresh chilled 1.7 mL Eppendorf tube. Samples were stored at −80° C. Microsome samples were quantitated using Pierce 660 Assay (ThermoFisher Cat #22660) with pre-diluted BSA standards (ThermoFisher Cat #23208) ranging from 125-2000 μg/mL. Each sample was diluted to 10ng/ul for an ELISA input of 0.5ug in 50ul.
Preparation of Assay Reagents
All assay reagents were provided in the Heme Oxygenase 1 (HO1) Mouse SimpleStep ELISA Kit (Abcam #ab204524). Prior to use, all reagents were equilibrated to room temperature. 1×Wash Buffer PT was prepared by diluting 10×Wash Buffer PT 1:10 with deionized water. Antibody cocktail was prepared by diluting the 10×Capture Antibody and 10×Detector Antibody to 1×in Antibody Diluent 5BI. Mouse heme oxygenase 1 protein standard was reconstituted using 500ul homogenization buffer (Table A), mixed and held at room temperature for 10 minutes prior to dilution. An eight point standard curve was generated by diluting the Stock Standard 1:2 for standard curve ranging from 10,000-156.3 pg/mL.
Heme Oxygenase 1 (HO1) Mouse SimpleStep ELISA
50ul of all samples and standards were added to appropriate wells in duplicate. 50ul of 1×Antibody Cocktail was added to each well. The plate was sealed with provided seal and incubated at room temperature on a plate shaker at 400 rpm. After one hour incubation, the Antibody Cocktail was aspirated and the wells were washed three times with 350ul 1×Wash Buffer PT, aspirating completely between each step. After the last wash was aspirated dry, 100ul TMB Substrate was added to each well and the plate was incubated in the dark at room temperature for 10 minutes on a plate shaker at 400 rpm. After the 10 minute incubation, 100ul of Stop Solution was added to each well. Plate was shaken at 400 rpm for 1 minute to mix. Softmax Pro 7.0.3 was used to read OD at 450 nm as well as for analysis.
Heme Oxygenase 1 Protein Levels in Mouse Plasma
All assay reagents were provided in the Heme Oxygenase 1 (HO1) Mouse SimpleStep ELISA Kit (Abcam #ab204524). 1×Wash Buffer PT was prepared by diluting 10×Wash Buffer PT 1:10 with deionized water. Antibody cocktail was prepared by diluting the 10×Capture Antibody and 10×Detector Antibody to 1×in Antibody Diluent 5BI. […]

Kinetic solubility = assay type: physicochemical; conditions: Dulbecco's phosphate buffered saline (DPBS), aqueous buffer, kinetic from dmso stock, DPBS pH 7.4, 25° C., 200 μM test compound
Method: 10 μL of 10 mM DMSO stock solution were aliquotted to 490 μL of DMSO solution and separately 490 μL of Dulbecco's phosphate buffer saline, DPBS, pH 7.4 solution in 1.2 mL 96-well plates in duplicate. Final concentration was 200 μM of the test compound. Samples were incubated at 25° C. with shaking at 200 rpm for 16 h. Samples were centrifuged at 3500 rpm for 20 min at 25° C., and supernatant was submitted for HPLC analysis.
Kinetic solubility was measured using the following equation: […]

FTH1 = FTH1 mRNA expression in HepG2 cells (Nanostring); assay type: cell-based, human; conditions: 24 hours treatment
Method: RNA Isolation and Quantification of Gene Expression
HepG2 cells were seeded at 250 k/well in 12-well tissue culture plates coated with collagen (collagen I, rat tail (thin plate coating); ENZO Life Sciences) for approximately 24 hours. The seeded cells were then treated with dose titration of the compound of Example 17 or dimethyl fumarate (DMF) (a Nrf2 activator; Fisher Scientific) via media change, with biological triplicates performed for each treatment. After approximately 24 hours of treatment, cells were visually inspected to confirm that no toxicity occurred with compound treatment. The treated cells were washed with PBS, aspirated, parafilmed and frozen at −80° C. prior to RNA isolation. RNA was isolated using Machery-Nagel isolation kit (NucleoSpin® RNA: catalog 740955.250) and then quantitated using ThermoFisher Nanodrop.
RNA was diluted for Nanostring gene expression analysis. The diluted RNA at an input of 200ng RNA was run on a Nanostring instrument, which was supported with nCounter® SPRINT Profiler System and nSolver4.0 Software, nCounter® SPRINT Cartridge, nCounter® SPRINT Reagent Pack, and nCounter© SPRINT Hybridization Buffer. Analysis was done manually using raw data obtained from nSolver4.0 Software. CLTC, POLR2A, RPL27 and TBP were used as reference genes for normalization. Data was graphed as fold change compared to DMSO treatment. […]

[2] = PK study, plasma and brain levels in C57BL/6 mice; assay type: in vivo, mouse; conditions: male C57BL/6 mice, 50 mg/kg oral
Method: 9-10 week old male C57BL/6 mice were dosed orally with 50 mg/kg of the test compound formulated in 5% w/v tween 80 and 0.5% methyl cellulose. At 0.5 and 4 h post dosing, whole blood was collected, animals were sacrificed and brain tissues were collected. The blood samples were immediately placed on ice, and centrifuged within 60 min at 4° C. for 3 min at 14000 rpm to obtain plasma. Plasma was transferred by pipette to pre-labeled Eppendorf tubes, stored at −80° C. until analyzed.
Brain tissue samples were collected and rinsed with fresh ice cold 0.9% NaCl solution, dried quickly and thereafter frozen on dry ice/liquid nitrogen and stored at −70±10° C. until analyzed. Homogenization was done using phosphate buffer saline and used for analysis. Bioanalysis was performed using LC-MS/MS (API 4000).

[3] = PD study, liver compound concentration in mice; assay type: in vivo; conditions: mouse liver, 50 mpk oral

| Compound | Maximum Fold induction [1] | EC50 [1] | solubility at 16 h (Kinetic solubility) | Liver Protein (3 h) (Heme Oxygenase 1 (HO1)) | Liver Protein (6 h) (Heme Oxygenase 1 (HO1)) | Plasma Protein (3 h) (Heme Oxygenase 1 (HO1)) | Plasma Protein (6 h) (Heme Oxygenase 1 (HO1)) | also measured |
| --- | --- | --- | --- | --- | --- | --- | --- | --- |
| Cn1c(Nc2nc3c(s2)CC(C)(C)CC3)nc2cc(C(=O)NCCOCCO)ccc21 [Example 6, 2-((6,6-dimethyl-4,5,6,7-tetrahydrobenzo[d]thiazol-2-yl)amino)-N-(2-(2-hydroxyethoxy)ethyl)-1-methyl-1H-benzo[d]imidazole-5-carboxamide] | 41 | 3000 nM | 8.1 µM (≈ 3.59 µg/mL) | – | – | – | – | – |
| COC(=O)/C=C/C(=O)OC [DMF, dimethyl fumarate, reference compound] | – | – | – | – | – | – | – | FTH1 expression fold increase (FTH1): comparable fold increases |
| COCCNC(=O)c1ccc2c(c1)nc(Nc1nc3c(s1)CCC3)n2C [Example 8, 2-((5,6-dihydro-4H-cyclopenta[d]thiazol-2-yl)amino)-N-(2-methoxyethyl)-1-methyl-1H-benzo[d]imidazole-5-carboxamide] | 5-8 | 2500 nM | 6.9 µM (≈ 2.56 µg/mL) | – | – | – | – | – |
| Cl.Cn1c(Nc2nc3c(s2)CNCC3)nc2cc(C(=O)NCCOCCO)ccc21 [Example 9, N-(2-(2-hydroxyethoxy)ethyl)-1-methyl-2-((4,5,6,7-tetrahydrothiazolo[5,4-c]pyridin-2-yl)amino)-1H-benzo[d]imidazole-5-carboxamide hydrochloride] | 2 | – | 2.8 µM | – | – | – | – | – |
| Cn1c(Nc2nc3ccc(OC(F)(F)F)cc3s2)nc2cc(C(=O)NCCOCCO)ccc21 [Comparator 1, 1-methyl-2-(6-trifluoromethoxy-benzothiazol-2-ylamino)-1H-benzoimidazole-5-carboxylic acid [2-(2-hydroxyethoxy)-ethyl]-amide, reference compound] | – | – | – | 1.6x | 3.2x | 1.1x | 1.3x | – |
| CC1CCc2nc(Nc3nc4cc(C(=O)NCCOCCO)ccc4n3C)sc2C1 (centres unmarked) [Example 7, N-(2-(2-hydroxyethoxy)ethyl)-1-methyl-2-((6-methyl-4,5,6,7-tetrahydrobenzo[d]thiazol-2-yl)amino)-1H-benzo[d]imidazole-5-carboxamide] | 27 | 2700 nM | 7.2 µM (≈ 3.09 µg/mL) | – | – | – | – | – |

Second part, led by results:

| Maximum Fold induction [1] | EC50 [1] | solubility at 16 h (Kinetic solubility) | Compound | Liver Protein (3 h) (Heme Oxygenase 1 (HO1)) | Liver Protein (6 h) (Heme Oxygenase 1 (HO1)) | Plasma Protein (3 h) (Heme Oxygenase 1 (HO1)) | Plasma Protein (6 h) (Heme Oxygenase 1 (HO1)) | also measured |
| --- | --- | --- | --- | --- | --- | --- | --- | --- |
| 6-27 | – | – | Cn1c(Nc2nc3cc(OC(F)(F)F)ccc3[nH]2)nc2cc(C(=O)O)ccc21 [Example 13, 1-methyl-2-((5-(trifluoromethoxy)-1H-benzo[d]imidazol-2-yl)amino)-1H-benzo[d]imidazole-5-carboxylic acid] | 1.8x | 1.2x | 1.1x | 0.8x | – |
| 21-38 | – | – | COCCNC(=O)c1ccc2c(c1)nc(Nc1nc3ccc(OCCOC)cc3o1)n2C [Example 56, 2-((6-(2-methoxyethoxy)benzo[d]oxazol-2-yl)amino)-N-(2-methoxyethyl)-1-methyl-1H-benzo[d]imidazole-5-carboxamide] | – | – | – | – | brain penetration [2]: good brain penetration |
| 9-14 | – | – | Cn1c(Nc2nc3ccc(OC(F)(F)F)cc3o2)nc2cc(C(=O)O)ccc21 [Example 44, 1-methyl-2-((6-(trifluoromethoxy)benzo[d]oxazol-2-yl)amino)-1H-benzo[d]imidazole-5-carboxylic acid] | 1.6x | 2.1x | 1.0 x | 1.1x | Liver Conc uM (3 h) ([3]; 3 h): 217 µM; Liver Conc uM (6 h) ([3]; 6 h): 162 µM |
| 18 | – | 3.5 µM (≈ 1.46 µg/mL) | Cn1c(Nc2nc3ccccc3o2)nc2cc(C(=O)NCCNC3=NCCN3)ccc21 [Example 22, 2-(benzo[d]oxazol-2-ylamino)-N-(2-((4,5-dihydro-1H-imidazol-2-yl)amino)ethyl)-1-methyl-1H-benzo[d]imidazole-5-carboxamide] | – | – | – | – | – |
